The source of these data is US12239733B2, “Treatment of protein aggregation myopathic and neurodegenerative diseases by parenteral administration of trehalose” (Seelos Therapeutics, Inc., priority 2013, dated 2025).

Entries after “also recorded” stand apart in the source; their conditions may differ.

Data set [1] has as its system transgenic OPMD mice. The settings on record: cited from earlier work.
Data set [2] concerns transgenic HD mice. As to conditions: oral, cited from earlier work.
Data set [3] is described as follows: Preclinical pharmacokinetic study: plasma and muscle concentrations of trehalose after intravenous bolus (IV) and oral gavage (PO). It counts as in vivo, male Sprague-Dawley (SD) rats. As to the method:
The plasma and muscle concentrations of trehalose in male Sprague-Dawley (SD) rats was determined after intravenous bolus (IV) and oral gavage (PO) administration.
The study included 42 SD rats (male, 250 to 350 grams in weight, the Shanghai SLAC Laboratory Animal Co. Ltd.). Animals were administered with a volume of 5 ml/kg trehalose formulation (trehalose dihydrate in sterilized water at 200 mg/mL) to achieve a nominal dose of 1 gr/kg, intravenously or orally.
Blood samples were collected after each dose administration and processed for plasma. Muscle samples (hind leg muscle) were collected and homogenized. The concentrations of trehalose in plasma and muscle homogenate samples were analyzed by qualified bioanalytical LC/MS/MS methods.
Plasma concentration data of trehalose was subjected to a non compartmental pharmacokinetic analysis using WinNonlin software program (version 6.3, Pharsight, Mountain View, CA). Zero-time intercept concentration (C0), volume of distribution (Vdss), Clearance (Cl), peak plasma concentrations (Cmax) and the corresponding peak times (Tmax), terminal half-life (T½), mean residence time (MRT) from time zero to the last time point (MRT0-last), MRT from time zero to infinity (MRT0-inf), the area under the plasma concentration-time curve (AUC) from time zero to the last time point (AUC0-last) and AUC from time zero extrapolated to infinity (AUC0-inf) were calculated using the linear/log trapezoidal rule. Nominal sampling times were used to calculate all pharmacokinetic parameters since there was not any deviation larger than 5% between the actual and nominal sampling times.
The values of muscle to plasma concentration and AUC ratio (M/P ratio) were both calculated.

For data set [4] the following is noted: oral (ingested); cited from earlier work.
The subject of data set [5] is healthy volunteers. The settings on record: cited from earlier work.
Where [6] appears, read: 0.2%-5% trehalose in drinking water, 5-9 weeks.

Consider `OC[C@H]1O[C@H](O[C@H]2O[C@H](CO)[C@@H](O)[C@H](O)[C@H]2O)[C@H](O)[C@@H](O)[C@@H]1O` [trehalose, α-G-glucopyranosyl α-D-glucopyranoside], for which the “OPMD onset, phenotype, aggregate formation, cell death” value in data set [1] (oral trehalose) is “delay the OPMD onset, attenuate the disease phenotype, decrease polyalanine protein aggregate formation and decrease cell death”. In data set [1] (oral, 2% trehalose in drinking water, 4-6 months), the “aggregation formation and toxicity of mutant PABPN1 in myocytes” value was “significantly reduce aggregation formation and toxicity of the mutant PABPN1 in myocytes”. Moreover, in data set [2] (setting [6]), the “motor dysfunction / HD-related motor symptoms” value was “improve motor dysfunction; also recorded: improvement of HD-related motor symptoms”; the “polyglutamine / huntingtin aggregates” value was “reduce polyglutamine aggregates; also recorded: inhibition of formation of intra-nuclear huntingtin aggregates in the brain and liver”. In addition, the survival result in data set [2] (HD mouse model) was “extend survival”. The molecule also displayed an AUC0-inf/AUC0-last in data set [3] (male, Sprague-Dawley, rat, in vivo, iv, 1000 mg/kg) of 100%. The molecule also had an AUC0-inf in data set [3] (rat, in vivo, iv, 1000 mg/kg) of 183000 ng·h/g. The “plasma concentration of trehalose after oral administration” value in data set [3] (rat, in vivo, po) was “undetectable”. Moreover, in data set [4], the “share of ingested trehalose absorbed into the blood stream” value is given as “Less than 0.5%”. Besides, the safety issues reported entry in data set [5] (healthy volunteers, oral doses from 10 to 60 gr) is reported as “mild abdominal symptoms”. Also, the “gastrointestinal effects of high oral amounts” value in data set [5] (oral, exceeding 40-50 gram per day, higher than 50 g a day in humans) was “frequently cause diarrhea, bloating and discomfort; also recorded: causes diarrhea and bloating”.

As to `OC[C@H]1O[C@H](O[C@H]2O[C@H](CO)[C@@H](O)[C@H](O)[C@H]2O)[C@H](O)[C@@H](O)[C@@H]1O` [trehalose dihydrate], the tolerability in rats result in data set [3] (1000 mg/kg IV or PO, male SD rats) is reported as “well tolerated”.
